ChEMBL document CHEMBL5352469, “Solubility-driven optimization of benzothiopyranone salts leading to a preclinical candidate with improved pharmacokinetic properties and activity against Mycobacterium tuberculosis” (Eur J Med Chem, 2023)
Values after ≈ are worked out from the molar mass of the structure shown.

Key:
[1] = Aqueous solubility of compound by HPLC-PDA method; format: physicochemical; details: buffer
[2] = Apparent permeability across apical to basolateral side in human Caco-2 cells incubated for 21 days; format: ADME, cell-based; details: time 21 day
[3] = Apparent permeability across basolateral to apical side in human Caco-2 cells incubated for 21 days; format: ADME, cell-based; details: time 21 day
[4] = Efflux ratio of apparent permeability across basolateral to apical side over apical to basolateral side in human Caco-2 cells; format: ADME, cell-based
[5] = Elimination half life in Balb/c mouse at 50 mg/kg, po measured upto 24 hrs by LC/MS/MS analysis; format: ADME, organism-based; details: in vivo, read-out: beta t1/2 (converted)
[6] = Elimination half life in Balb/c mouse at 5 mg/kg, iv measured upto 24 hrs by LC/MS/MS analysis; format: ADME, organism-based; details: in vivo, read-out: beta t1/2 (converted)
[7] = Tmax in Balb/c mouse at 50 mg/kg, po measured upto 24 hrs by LC/MS/MS analysis; format: ADME, organism-based; details: in vivo
[8] = Cmax in Balb/c mouse at 50 mg/kg, po measured upto 24 hrs by LC/MS/MS analysis; format: ADME, organism-based; design: time < 24 hrs, dose 50 mg/kg, route po; details: in vivo
[9] = Cmax in Balb/c mouse at 5 mg/kg, iv measured upto 24 hrs by LC/MS/MS analysis; format: ADME, organism-based; design: dose 5 mg/kg, time < 24 hrs, route iv; details: in vivo
[10] = AUC (0 to t) in Balb/c mouse at 50 mg/kg, po measured upto 24 hrs by LC/MS/MS analysis; format: ADME, organism-based; design: dose 50 mg/kg, time < 24 hrs, route po; details: in vivo
[11] = AUC (0 to t) in Balb/c mouse at 5 mg/kg, iv measured upto 24 hrs by LC/MS/MS analysis; format: ADME, organism-based; design: time < 24 hrs, dose 5 mg/kg, route iv; details: in vivo
[12] = Oral bioavailability in Balb/c mouse at 50 mg/kg measured upto 24 hrs by LC/MS/MS analysis; format: ADME, organism-based; details: in vivo
[13] = Elimination half life in Sprague-Dawley rat at 50 mg/kg, po measured upto 24 hrs by LC/MS/MS analysis; format: ADME, organism-based; details: in vivo, read-out: beta t1/2 (converted)
[14] = Elimination half life in Sprague-Dawley rat at 5 mg/kg, iv measured upto 24 hrs by LC/MS/MS analysis; format: ADME, organism-based; details: in vivo, read-out: beta t1/2 (converted)
[15] = Tmax in Sprague-Dawley rat at 50 mg/kg, po measured upto 24 hrs by LC/MS/MS analysis; format: ADME, organism-based; details: in vivo
[16] = Cmax in Sprague-Dawley rat at 50 mg/kg, po measured upto 24 hrs by LC/MS/MS analysis; format: ADME, organism-based; design: time < 24 hrs, dose 50 mg/kg, route po; details: in vivo
[17] = Cmax in Sprague-Dawley rat at 5 mg/kg, iv measured upto 24 hrs by LC/MS/MS analysis; format: ADME, organism-based; design: time < 24 hrs, dose 5 mg/kg, route iv; details: in vivo
[18] = AUC (0 to t) in Sprague-Dawley rat at 50 mg/kg, po measured upto 24 hrs by LC/MS/MS analysis; format: ADME, organism-based; design: dose 50 mg/kg, time < 24 hrs, route po; details: in vivo
[19] = AUC (0 to t) in Sprague-Dawley rat at 5 mg/kg, iv measured upto 24 hrs by LC/MS/MS analysis; format: ADME, organism-based; design: time < 24 hrs, dose 5 mg/kg, route iv; details: in vivo
[20] = AUC (0 to infinity) in Sprague-Dawley rat at 50 mg/kg, po measured upto 24 hrs by LC/MS/MS analysis; format: ADME, organism-based; design: time < 24 hrs, dose 50 mg/kg, route po; details: in vivo
[21] = AUC (0 to infinity) in Sprague-Dawley rat at 5 mg/kg, iv measured upto 24 hrs by LC/MS/MS analysis; format: ADME, organism-based; design: time < 24 hrs, dose 5 mg/kg, route iv; details: in vivo
[22] = MRT (0 to infinity) in Sprague-Dawley rat at 50 mg/kg, po measured upto 24 hrs by LC/MS/MS analysis; format: ADME, organism-based; details: in vivo
[23] = MRT (0 to infinity) in Sprague-Dawley rat at 5 mg/kg, iv measured upto 24 hrs by LC/MS/MS analysis; format: ADME, organism-based; details: in vivo
[24] = Clearance in Sprague-Dawley rat at 5 mg/kg, iv measured upto 24 hrs by LC/MS/MS analysis; format: ADME, organism-based; details: in vivo
[25] = Oral bioavailability in Sprague-Dawley rat at 50 mg/kg measured upto 24 hrs by LC/MS/MS analysis; format: ADME, organism-based; details: in vivo
[26] = Chemical stability of the compound under 4500 +/- 500 lx light condition by measuring compound purity incubated for 10 days by HPLC-PDA method relative to initial purity; format: physicochemical; details: 240 h; time 10 day
[27] = Chemical stability of the compound under 60 degree C high temperature by measuring compound purity incubated for 10 days by HPLC-PDA method analysis relative to initial purity; format: physicochemical; details: 240 h; time 10 day
[28] = Chemical stability of the compound under 92.5% humidity by measuring compound purity incubated for 10 days by HPLC-PDA method relative to initial purity; format: physicochemical; details: 240 h; time 10 day
[29] = Lipophilicity, log P of the compound in octanol/water incubated for 72 hrs under shaking condition by shake flask based HPLC-PDA method; format: physicochemical; details: 72 h
[30] = Lipophilicity, log D of the compound in octanol/water at pH 2.0 incubated for 72 hrs under shaking condition by shake flask based HPLC-PDA method; format: physicochemical; details: pH 2, 72 h
[31] = Lipophilicity, log D of the compound in octanol/water at pH 4.0 incubated for 72 hrs under shaking condition by shake flask based HPLC-PDA method; format: physicochemical; details: pH 4, 72 h
[32] = Lipophilicity, log D of the compound in octanol/water at pH 6.8 incubated for 72 hrs under shaking condition by shake flask based HPLC-PDA method; format: physicochemical; details: pH 6.8, 72 h
[33] = Lipophilicity, log D of the compound in octanol/water at pH 7.6 incubated for 72 hrs under shaking condition by shake flask based HPLC-PDA method; format: physicochemical; details: pH 7.6, 72 h
[34] = tested on: Mycobacterium tuberculosis; test: Antibacterial activity against Mycobacterium tuberculosis H37Rv BALB/c mouse model assessed as reduction in CFU in lungs at 25 mg/kg via oral gavage for 30 days (reference value: 5.92 +/-0.29); format: functional; details: time 30 day
[35] = tested on: Mycobacterium tuberculosis; test: Antibacterial activity against Mycobacterium tuberculosis H37Rv BALB/c mouse model assessed as reduction in delta CFU in lungs at 25 mg/kg via oral gavage for 30 days; format: functional; details: time 30 day

SMILES: O=C(O)CC(O)(CC(=O)O)C(=O)O.O=C(O)CC(O)(CC(=O)O)C(=O)O.O=C(O)CC(O)(CC(=O)O)C(=O)O.O=c1cc(N2CCN(CC3CCCCC3)CC2)sc2c([N+](=O)[O-])cc(C(F)(F)F)cc12.O=c1cc(N2CCN(CC3CCCCC3)CC2)sc2c([N+](=O)[O-])cc(C(F)(F)F)cc12
- solubility ([1]; read-out: solubility): 128 µg/mL
- Papp A→B [2]: 4.08 ×10⁻⁶ cm/s
- Papp B→A [3]: 0.26 ×10⁻⁶ cm/s
- efflux ratio [4]: 0.1

SMILES: Cl.O=c1cc(N2CCN(CC3CCCCC3)CC2)sc2c([N+](=O)[O-])cc(C(F)(F)F)cc12
- solubility ([1]; read-out: solubility): 28.1 µg/mL
- Papp A→B [2]: 0.39 ×10⁻⁶ cm/s
- Papp B→A [3]: 0.14 ×10⁻⁶ cm/s
- efflux ratio [4]: 0.36
- half-life [5]: 6.72 h
- half-life [6]: 7.59 h
- Tmax [7]: 0.42 h
- Cmax [8]: 502 ng/mL
- Cmax [9]: 5990 ng/mL
- AUCt ([10]; 24 h): 2251 ng·h/mL
- AUCt ([11]; 24 h): 6434 ng·h/mL
- F ([12]; po, 50 mg/kg, 24 h): 14.1%
- half-life [13]: 5.38 h
- half-life [14]: 7.92 h
- Tmax [15]: 1.67 h
- Cmax [16]: 163 ng/mL
- Cmax [17]: 3490 ng/mL
- AUC(0-t) at 24 h [18]: 961 ng·h/mL
- AUC(0-t) at 24 h [19]: 1890 ng·h/mL
- AUC(0-inf) [20]: 982 ng·h/mL
- AUC(0-inf) [21]: 1940 ng·h/mL
- MRT inf [22]: 5.13 h
- MRT inf [23]: 2.52 h
- clearance [24]: 43.6 mL/min/kg
- bioavailability [25]: 5.07%
- Stability [26]: 99.8%
- Stability [27]: 100%
- Stability [28]: 100%
- logP [29]: 2.56
- logD [30]: 1.3
- logD [31]: 3.77
- logD [32]: > 4.27
- logD [33]: > 4.29

SMILES: O=C(O)/C=C/C(=O)O.O=C(O)/C=C/C(=O)O.O=C(O)/C=C/C(=O)O.O=c1cc(N2CCN(CC3CCCCC3)CC2)sc2c([N+](=O)[O-])cc(C(F)(F)F)cc12.O=c1cc(N2CCN(CC3CCCCC3)CC2)sc2c([N+](=O)[O-])cc(C(F)(F)F)cc12
- solubility ([1]; read-out: solubility): 132 µg/mL
- Papp A→B [2]: 7.79 ×10⁻⁶ cm/s
- Papp B→A [3]: 0.11 ×10⁻⁶ cm/s
- half-life [5]: 8.03 h
- half-life [6]: 6.98 h
- Tmax [7]: 0.67 h
- Cmax [8]: 542 ng/mL
- Cmax [9]: 2760 ng/mL
- AUC(0-t) at 24 h ([10]; Balb/c): 3440 ng·h/mL
- AUC(0-t) at 24 h ([11]; Balb/c): 1990 ng·h/mL
- bioavailability ([12]; Balb/c): 18.9%

SMILES: NNC(=O)c1ccncc1 [ISONIAZID]
- Activity [34]: 3.64 log10CFU
- Activity [35]: 3.89 log10CFU

SMILES: O=c1nc(N2CCN(CC3CCCCC3)CC2)sc2c([N+](=O)[O-])cc(C(F)(F)F)cc12 [MACOZINONE]
- solubility [1]: 0.11 µg/mL (≈ 0.241 µM)
